Read-outs that look alike come from different tables or passages of the source.
What was measured:
[1] = Antiradical activity, acellular DPPH model; details: DPPH 30 minutes, absorbance 520 nm
Procedure: The antiradical activity of the derivatives derived from the syntheses described above was evaluated in an in vitro acellular model using DPPH.
1,1-Diphenyl 2-picryihydrazyl, on account of its paramagnetic structure, can accept an electron or a hydrogen radical to become a stable diamagnetic molecule. This free radical, which is purple coloured in ethanol, has a strong absorption band at 520 nm.
The addition of a compound that provides electrons results in a decolorization of the 1,1-diphenyl 2-picrylhydrazyl that is proportional to the number of electrons taken up by the radical, which may be monitored by measuring the absorbance at 520 nm.
DPPH is incubated for 30 minutes in the presence of the derivatives described above, tested at a concentration of 10^−5M, or alone for the control. At the end of the incubation, the antiradical activity of the above derivatives is evaluated by measuring the absorbance of the solution at 520 nm.
The antiradical activity of each test product is calculated according to the formula, as a percentage: 100−((OD520 in the presence of the test compound/OD520 in the absence of compound)×100)

[2] = system: normal human melanocytes; test: Cytotoxicity on normal human melanocytes, PNPP assay; type: cell-based; details: 24 hours, relative to untreated wells
Procedure: The cytotoxicity of the active agents is studied on normal human melanocytes in 24-well plates, via assay with PNPP (P-nitrophenyl phosphate), this substance being converted into p-nitrophenol via the intracellular acid phosphatases of viable cells. The absorbance of p-nitrophenol at 405 nm is directly proportional to the number of viable cells.
The active agents are tested at 2 different concentrations (10^−4 M and 10^−5 M) and added to the culture medium and incubated at 37° C. for 24 hours. The assay with PNPP is performed on the cell lawn and the results are expressed as a percentage of viability relative to the negative control (untreated wells).

[3] = target: T1, Human tyrosinase (Homo sapiens, UniProt P14679); test: In vitro test of inhibition of human tyrosinase from melanocyte extracts (L-dopa/MBTH, OD 490 nm); type: biochemical; details: melanocyte extract; for inhibition at 100 µM: 10^−4M, read-out: Inhibition of human tyrosinase, percentage of inhibition, Mean 10^−4M; for inhibition at 10 µM: 10^−5M, read-out: Inhibition of human tyrosinase, percentage of inhibition, Mean 10^−5M
T1 construct: endogenous in cells; host or cells: normal human melanocytes (abdominal surgery; several donors of fair, brown and black phototypes)
T1 sequence (P14679 19-529): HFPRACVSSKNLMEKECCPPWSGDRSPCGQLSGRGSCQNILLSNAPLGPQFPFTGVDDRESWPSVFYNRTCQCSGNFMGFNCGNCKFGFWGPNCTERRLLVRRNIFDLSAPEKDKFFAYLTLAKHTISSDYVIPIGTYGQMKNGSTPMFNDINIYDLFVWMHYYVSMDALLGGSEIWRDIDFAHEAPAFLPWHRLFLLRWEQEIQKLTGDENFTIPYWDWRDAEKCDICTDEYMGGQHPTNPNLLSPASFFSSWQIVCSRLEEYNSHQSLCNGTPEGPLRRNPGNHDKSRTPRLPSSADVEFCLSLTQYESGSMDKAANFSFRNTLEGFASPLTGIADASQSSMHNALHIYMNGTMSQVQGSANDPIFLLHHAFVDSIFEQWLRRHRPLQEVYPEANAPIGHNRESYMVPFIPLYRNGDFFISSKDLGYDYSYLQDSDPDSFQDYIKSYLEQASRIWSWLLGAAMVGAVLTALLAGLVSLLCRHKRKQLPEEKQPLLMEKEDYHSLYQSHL
Procedure: Human tyrosinase, obtained from melanocyte extracts obtained from healthy donors, catalyses the formation of L-dopaquinone from L-dopa. Now, the L-dopaquinone may be quantified by visible spectrophotometry at 490 nm by means of a chromogen: 3-methyl-2-benzothiazolinone hydrazone (MBTH).
The melanocyte extract is obtained after lysis of cell membranes of the normal human melanocytes, performed via a thermal shock. The supernatant is recovered and then incubated with MBTH (Sigma) and L-dopa (Sigma). […]

[4] = target: T1, Human tyrosinase; test: Inhibition of human tyrosinase after 24 h application to normal human melanocytes in monolayer; type: cell-based; details: for inhibition at 1000 µM: 10^−3 M
Procedure: Normal human melanocytes (obtained from abdominal surgery) are seeded in 24-well plates at a rate of 80 000 cells per well. They are cultured to confluence and the active agents are applied for 24 hours to the culture media. After 24 hours, the media are removed and the melanocytes are detached via mechanical action. An extraction is performed via a thermal shock and the supernatants are then recovered and incubated with MBTH (Sigma) and L-dopa (Sigma). The OD at 490 nm is measured after 30 minutes, and the tyrosinase inhibition is calculated by relating the OD at 490 nm to the protein content (measured in each culture well) of the test relative to the ratio: OD 490 nm/protein concentration of the negative control (untreated control).
The compounds derived from the examples mentioned above were tested on melanocytes derived from various donors but of fair phototype, according to the protocol described in Example 29. The donors tested are as follows: • donor S (donor tested in Example 12): • donor 1: • donor 2: • donor 3
The compound derived from Example 1 is tested on cultures of melanocytes obtained from 2 donors of brown phototype and from one donor of black phototype. The protocol applied is that described in Example 29. […]

[5] = system: fungal tyrosinase; test: In vitro test of inhibition of isolated fungal tyrosinase (L-dopa, dopachrome OD 490 nm); type: biochemical; details: 490 nm
Source text: Tyrosinase catalyses the formation of L-dopaquinone and then of dopachrome from L-dopa. Now, dopachrome is a coloured compound that may be quantified by visible spectrophotometry at 490 nm. The use of an active agent capable of modifying the enzymatic activity will be reflected by a variation in the optical density at 490 nm. The to ratio of the rates of formation of dopachrome makes it possible to determine precisely the activations or inhibitions obtained with the various test molecules.
The sample to be tested is incubated in the presence of fungal tyrosinase (Sigma), for 5 minutes with stirring. L-Dopa (Sigma), a tyrosinase substrate, is incubated for 10 minutes in the absence of light, in the presence or absence of the test molecules. The calculation of the percentage of inhibition is performed by relating the test OD to the OD of the negative control without molecule.
In the context of this in vitro test, the p-coumaric acid derivatives were tested at final concentrations of 10^−4M and 10^−5M.

[6] = 10^−4M, 24 hours, read-out: Inhibition of human tyrosinase after application to normal human melanocytes, percentage of inhibition, Mean 10^−4M
[7] = 10^−5M, 24 hours, read-out: Inhibition of human tyrosinase after application to normal human melanocytes, percentage of inhibition, Mean 10^−5M
[8] = Donor 1, fair phototype, 10^−4 M, read-out: Inhibition of tyrosinase, Mean 10^−4 M, Donor 1
[9] = Donor 1, fair phototype, 10^−5 M, read-out: Inhibition of tyrosinase, Mean 10^−5 M, Donor 1
[10] = Donor 2, fair phototype, 10^−4 M, read-out: Inhibition of tyrosinase, Mean 10^−4 M, Donor 2
[11] = Donor 2, fair phototype, 10^−5 M, read-out: Inhibition of tyrosinase, Mean 10^−5 M, Donor 2
[12] = Donor 3, fair phototype, 10^−4 M, read-out: Inhibition of tyrosinase, Mean 10^−4 M, Donor 3
[13] = Donor 3, fair phototype, 10^−5 M, read-out: Inhibition of tyrosinase, Mean 10^−5 M, Donor 3
[14] = Donor S, fair phototype, 10^−4 M, read-out: Inhibition of tyrosinase, Mean 10^−4 M, Donor S
[15] = Donor S, fair phototype, 10^−5 M, read-out: Inhibition of tyrosinase, Mean 10^−5 M, Donor S

Structure (SMILES)	Antiradical activity, Mean 10^−5 M [1] [%]	Percentages of viability, Mean 10^−4 M [2] [%]	Percentages of viability, Mean 10^−5 M [2] [%]	inhibition at 100 µM [3] [%]	inhibition at 10 µM [3] [%]	inhibition at 100 µM [4, 6] [%]	inhibition at 10 µM [4, 7] [%]	inhibition at 100 µM [4, 8] [%]	inhibition at 10 µM [4, 9] [%]	inhibition at 100 µM [4, 10] [%]	inhibition at 10 µM [4, 11] [%]	inhibition at 100 µM [4, 12] [%]	inhibition at 10 µM [4, 13] [%]	inhibition at 100 µM [4, 14] [%]	inhibition at 10 µM [4, 15] [%]	Inhibition of fungal tyrosinase, percentage of inhibition, Mean 10^−4M [5] [%]	Inhibition of fungal tyrosinase, percentage of inhibition, Mean 10^−5M [5] [%]	further results
O=C(/C=C/c1ccc(O)c(O)c1)NCCc1ccc(O)c(O)c1 [Example 10, N-trans-caffeoyldopamine]	57.45	84.62	102.1	9.91	11.4	66.8	0	44.6	0	0	0.15	14.4	3.32	66.8	0	16.23	14.72	–
COc1cc(/C=C/C(=O)NCCc2ccc(O)cc2)ccc1O [Example 3, N-trans-feruloyltyramine]	13.73	102.55	111.54	0	7.56	49.6	33.1	44.8	0	10.7	0	57.9	42.5	49.6	33.1	29.41	10.16	inhibition at 1000 µM ([4]; B103, Donor B, brown phototype, read-out: Inhibition of tyrosinase, Mean Donor B, 10^−3 M): 87.4%; inhibition at 100 µM ([4]; B104, Donor B, brown phototype, 10^−4 M, read-out: Inhibition of tyrosinase, Mean Donor B, 10^−4 M): 30.5%; inhibition at 1000 µM ([4]; Donor A, brown phototype, read-out: Inhibition of tyrosinase, Mean Donor A, 10^−3 M): 85.6%; inhibition at 100 µM ([4]; Donor A, brown phototype, 10^−4 M, read-out: Inhibition of tyrosinase, Mean Donor A, 10^−4 M): 40.4%; inhibition at 10 µM ([4]; Donor A, brown phototype, 10^−5 M, read-out: Inhibition of tyrosinase, Mean Donor A, 10^−5 M): 15.6%; inhibition at 10 µM ([4]; Donor B, brown phototype, 10^−5 M, read-out: Inhibition of tyrosinase, Mean Donor B, 10^−5 M): 16.7%; inhibition at 100 µM ([4]; donor of black phototype, 10^−4 M, read-out: Inhibition, Mean Negroid skin, 10^−4 M): 44.5%; inhibition at 10 µM ([4]; donor of black phototype, 10^−5 M, read-out: Inhibition, Mean Negroid skin, 10^−5 M): 21.9%
COc1cc(CNC(=O)/C=C/c2ccc(O)c(O)c2)ccc1O [Example 11, N-trans-caffeoyl-4-hydroxy-3-methoxyphenylmethylamine]	59.2	–	116.99	0	8.68	–	28	–	–	–	–	–	–	–	–	12.03	3.7	–
COc1cc(/C=C/C(=O)NCc2ccc(O)c(OC)c2)ccc1O [Example 4, N-trans-feruloyl-4-hydroxy-3-methoxyphenylmethylamine]	15.72	101.94	99.55	6.42	4.92	39.8	15.8	–	–	–	–	–	–	–	–	1.35	0	–
COc1ccc(CCNC(=O)/C=C/c2ccc(O)c(O)c2)cc1OC [Example 12, N-trans-caffeoyl-3,4-dimethoxydopamine]	44.51	–	109.84	6.53	0	–	5.63	–	–	–	–	–	–	–	–	17.32	20.26	–
